Source: PubChem BioAssay AID328 (DTP/NCI, 2004)
Values joined by “and” are separate entries in the source; they are usually repeats but may differ in a detail not shown here. Identical values can stand only once. Toxic doses and inconclusive results are not listed. Rule for the calls: active = survival T/C of 150% or more; inactive = T/C below 125% in these data.

System: BDF1 mice, P388 leukemia ip, median survival T/C
Assay: NCI In Vivo Anticancer Drug Screen. Data for tumor model P388 Leukemia (intraperitoneal) in B6D2F1 (BDF1) mice
Conditions: endpoint: median survival time, higher = longer survival
Summary of the method: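 Each value expresses how treatment altered survival: treated-mouse outcome over vehicle-mouse outcome, both groups bearing the transplanted tumour.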

[1] = dose: 100.0 mg/kg/injection, schedule: Q04DX003 (ip), vehicle: Klucel (hydroxypropylcellulose) (HPC)
[2] = dose: 100.0 mg/kg/injection, schedule: Q04DX003 (ip), vehicle: saline
[3] = dose: 200.0 mg/kg/injection, schedule: Q04DX003 (ip), vehicle: saline
[4] = dose: 50.0 mg/kg/injection, schedule: Q01DX009 (ip), vehicle: saline with Tween-80
[5] = dose: 100.0 mg/kg/injection, schedule: Q01DX009 (ip), vehicle: saline with Tween-80
[6] = dose: 200.0 mg/kg/injection, schedule: Q01DX009 (ip), vehicle: saline with Tween-80
[7] = dose: 200.0 mg/kg/injection, schedule: Q04DX003 (ip), vehicle: Klucel (hydroxypropylcellulose) (HPC)
[8] = dose: 400.0 mg/kg/injection, schedule: Q04DX003 (ip), vehicle: Klucel (hydroxypropylcellulose) (HPC)

Measured: T/C

NC(CSC(c1ccccc1)(c1ccccc1)c1ccc2ccccc2c1)C(=O)O (configuration not stated)
inactive: dose: 12.5 mg/kg/injection, schedule: Q01DX009 (ip), vehicle: saline 89 % of control | dose: 45.0 mg/kg/injection, schedule: Q04DX003 (ip), vehicle: saline 86 % of control | [3] 95 % of control
active: dose: 2.75 mg/kg/injection, schedule: Q01DX009 (ip), vehicle: saline 173 % of control | dose: 4.12 mg/kg/injection, schedule: Q01DX009 (ip), vehicle: saline 227 % of control | dose: 6.25 mg/kg/injection, schedule: Q01DX009 (ip), vehicle: saline 250 % of control | dose: 12.5 mg/kg/injection, schedule: Q01DX009 (ip), vehicle: Klucel (hydroxypropylcellulose) (HPC) 216 % of control | dose: 25.0 mg/kg/injection, schedule: Q01DX009 (ip), vehicle: Klucel (hydroxypropylcellulose) (HPC) 333 % of control | dose: 25.0 mg/kg/injection, schedule: Q04DX003 (ip), vehicle: Klucel (hydroxypropylcellulose) (HPC) 210 % of control | dose: 29.0 mg/kg/injection, schedule: Q04DX003 (ip), vehicle: saline 200 % of control | dose: 50.0 mg/kg/injection, schedule: Q01DX009 (ip), vehicle: Klucel (hydroxypropylcellulose) (HPC) 200 % of control | dose: 50.0 mg/kg/injection, schedule: Q04DX003 (ip), vehicle: Klucel (hydroxypropylcellulose) (HPC) 200 % of control | dose: 50.0 mg/kg/injection, schedule: Q04DX003 (ip), vehicle: saline 300 % of control | dose: 66.0 mg/kg/injection, schedule: Q04DX003 (ip), vehicle: saline 272 % of control | [1] 300 % of control | [2] 300 % of control and 154 % of control

COC(=O)C(C#N)=N/C(=C/C=C1/N(C)c2ccccc2C1(C)C)c1ccccc1
inactive: [4] 102 % of control | [5] 96 % of control | [6] 97 % of control

C=C/C=C/CCC(=O)C=[N+]=[N-]
inactive: dose: 50.0 mg/kg/injection, schedule: Q01DX005 (ip), vehicle: saline with Tween-80 91 % of control | dose: 100.0 mg/kg/injection, schedule: Q01DX005 (ip), vehicle: saline with Tween-80 97 % of control | dose: 200.0 mg/kg/injection, schedule: Q01DX005 (ip), vehicle: saline with Tween-80 101 % of control

c1ccc(OCCC[P+](c2ccccc2)(c2ccccc2)c2ccccc2)cc1
inactive: dose: 0.78 mg/kg/injection, schedule: Q01DX010 (ip), vehicle: saline 90 % of control | dose: 1.56 mg/kg/injection, schedule: Q01DX010 (ip), vehicle: saline 100 % of control | dose: 3.13 mg/kg/injection, schedule: Q01DX010 (ip), vehicle: saline 109 % of control | dose: 6.25 mg/kg/injection, schedule: Q01DX010 (ip), vehicle: saline 118 % of control | dose: 12.5 mg/kg/injection, schedule: Q01DX010 (ip), vehicle: carboxymethylcellulose (CMC) 100 % of control

CO[C@H](C(=O)[C@@H](O)[C@@H](C)O)[C@@H]1Cc2cc3cc(O)c(C)c(O)c3c(O)c2C(=O)[C@H]1O
inactive: dose: 0.12 mg/kg/injection, schedule: Q01DX009 (ip), vehicle: water 114 % of control | dose: 0.25 mg/kg/injection, schedule: Q01DX009 (ip), vehicle: water 107 % of control | dose: 0.5 mg/kg/injection, schedule: Q01DX009 (ip), vehicle: water 114 % of control | dose: 1.0 mg/kg/injection, schedule: Q01DX009 (ip), vehicle: water 99 % of control | dose: 2.0 mg/kg/injection, schedule: Q01DX009 (ip), vehicle: water 97 % of control | dose: 4.0 mg/kg/injection, schedule: Q01DX009 (ip), vehicle: water 99 % of control

Cc1cc(Cl)ccc1NC(=O)c1ccccc1C(=O)O
inactive: [1] 91 % of control | [7] 91 % of control | [8] 87 % of control

C/C(=N\NC(=S)N(C)C)c1ccccn1
inactive: dose: 1.56 mg/kg/injection, schedule: Q01DX009 (ip), vehicle: saline with Tween-80 105 % of control | dose: 3.12 mg/kg/injection, schedule: Q01DX009 (ip), vehicle: saline with Tween-80 100 % of control

CC(C)OC(CCC#N)c1ccc(Cl)cc1 (configuration not stated)
inactive: dose: 100.0 mg/kg/injection, schedule: Q04DX003 (ip), vehicle: other 95 % of control | dose: 400.0 mg/kg/injection, schedule: Q04DX003 (ip), vehicle: other 95 % of control

N#CCN1CCOCC1
inactive: dose: 75.0 mg/kg/injection, schedule: Q01DX009 (ip), vehicle: saline 104 % of control | [2] 104 % of control | dose: 150.0 mg/kg/injection, schedule: Q01DX009 (ip), vehicle: saline 95 % of control | [3] 104 % of control

CCC(=O)NC1=C(N2CC2)C(=O)C(NC(=O)CC)=C(N2CC2)C1=O
inactive: dose: 4.0 mg/kg/injection, schedule: Q01DX009 (ip), vehicle: saline 90 % of control and 119 % of control
active: dose: 1.0 mg/kg/injection, schedule: Q01DX009 (ip), vehicle: saline 171 % of control and 185 % of control | dose: 2.0 mg/kg/injection, schedule: Q01DX009 (ip), vehicle: saline 225 % of control and 228 % of control

O=C(/C=C/c1c(Cl)cccc1Cl)c1ccc(Cl)cc1
inactive: [5] 86 % of control | [6] 90 % of control | dose: 400.0 mg/kg/injection, schedule: Q01DX009 (ip), vehicle: saline with Tween-80 104 % of control

CC(=O)OC1CC2c3ccccc3C1c1cccc[n+]12 (configuration not stated)
inactive: dose: 2.34 mg/kg/injection, schedule: Q01DX009 (ip), vehicle: Klucel (hydroxypropylcellulose) (HPC) 87 % of control | dose: 4.68 mg/kg/injection, schedule: Q01DX009 (ip), vehicle: Klucel (hydroxypropylcellulose) (HPC) 91 % of control | dose: 9.37 mg/kg/injection, schedule: Q01DX009 (ip), vehicle: Klucel (hydroxypropylcellulose) (HPC) 91 % of control | dose: 18.75 mg/kg/injection, schedule: Q01DX009 (ip), vehicle: Klucel (hydroxypropylcellulose) (HPC) 87 % of control

O=P(N1CCCCC1)(N1CC1)N1CC1
inactive: dose: 2.2 mg/kg/injection, schedule: Q01DX009 (ip), vehicle: saline 103 % of control | dose: 3.3 mg/kg/injection, schedule: Q01DX009 (ip), vehicle: saline 118 % of control
active: dose: 7.5 mg/kg/injection, schedule: Q01DX009 (ip), vehicle: saline 185 % of control | dose: 25.0 mg/kg/injection, schedule: Q04DX003 (ip), vehicle: saline 225 % of control

Nc1noc(N)n1
inactive: [2] 109 % of control | [3] 100 % of control | dose: 400.0 mg/kg/injection, schedule: Q04DX003 (ip), vehicle: saline 104 % of control

Cc1ccc(S(=O)(=O)OCC(C)(C)NC(=O)c2ccc([N+](=O)[O-])cc2)cc1
inactive: dose: 50.0 mg/kg/injection, schedule: Q01DX001 (ip), vehicle: saline with Tween-80 100 % of control | dose: 100.0 mg/kg/injection, schedule: Q01DX001 (ip), vehicle: saline with Tween-80 105 % of control | dose: 200.0 mg/kg/injection, schedule: Q01DX001 (ip), vehicle: saline with Tween-80 110 % of control

Cc1c(Cl)c(Cl)c(C)c(Cl)c1Cl
inactive: [1] 94 % of control | [7] 100 % of control | [8] 100 % of control

O=C(N=C1C=CC(=NC(=O)OCc2ccccc2)C=C1)OCc1ccccc1
inactive: [1] 95 % of control | [7] 100 % of control | [8] 100 % of control

Cc1ccc(N=NN(C)C)cc1
inactive: dose: 33.0 mg/kg/injection, schedule: Q01DX009 (ip), vehicle: saline with Tween-80 104 % of control | [4] 108 % of control
